pIC50: −log10 of the molar value.
System: LG0567-F671-PDC complex spheroids viability
Assay: Anticancer human tumor LG0567-F671-PDC patient-derived lung adenocarcinoma cell line growth inhibition [RAS]
Settings: for pIC50: curve of first compound; for viability, T/C: stronger effect = lower value
Method in brief: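 Tumour cells grown as complex spheroids with HUVEC endothelial cells and mesenchymal stem cells, treated with RAS pathway inhibitor combinations. Each agent spans half-log steps from near clinical Cmax, or 10 microM where Cmax is unknown.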

[1] = second compound 0.000949 µM, first compound 0.00316 µM
[2] = second compound 0.000949 µM, first compound 0.01 µM
[3] = second compound 0.000949 µM, first compound 0.0316 µM
[4] = second compound 0.000949 µM, first compound 0.1 µM
[5] = second compound 0.000949 µM, first compound 0.316 µM
[6] = second compound 0.000949 µM, first compound 1 µM
[7] = second compound 0.003 µM, first compound 0.00316 µM
[8] = second compound 0.003 µM, first compound 0.01 µM
[9] = second compound 0.003 µM, first compound 0.0316 µM
[10] = second compound 0.003 µM, first compound 0.1 µM
[11] = second compound 0.003 µM, first compound 0.316 µM
[12] = second compound 0.003 µM, first compound 1 µM
[13] = second compound 0.00949 µM, first compound 0.00316 µM
[14] = second compound 0.00949 µM, first compound 0.01 µM
[15] = second compound 0.00949 µM, first compound 0.0316 µM
[16] = second compound 0.00949 µM, first compound 0.1 µM
[17] = second compound 0.00949 µM, first compound 0.316 µM
[18] = second compound 0.00949 µM, first compound 1 µM
[19] = second compound 0.03 µM, first compound 0.00316 µM
[20] = second compound 0.03 µM, first compound 0.01 µM
[21] = second compound 0.03 µM, first compound 0.0316 µM
[22] = second compound 0.03 µM, first compound 0.1 µM
[23] = second compound 0.03 µM, first compound 0.316 µM
[24] = second compound 0.03 µM, first compound 1 µM
[25] = second compound 0.0949 µM, first compound 0.00316 µM
[26] = second compound 0.0949 µM, first compound 0.01 µM
[27] = second compound 0.0949 µM, first compound 0.0316 µM
[28] = second compound 0.0949 µM, first compound 0.1 µM
[29] = second compound 0.0949 µM, first compound 0.316 µM
[30] = second compound 0.0949 µM, first compound 1 µM
[31] = second compound 0.3 µM, first compound 0.00316 µM
[32] = second compound 0.3 µM, first compound 0.01 µM
[33] = second compound 0.3 µM, first compound 0.0316 µM
[34] = second compound 0.3 µM, first compound 0.1 µM
[35] = second compound 0.3 µM, first compound 0.316 µM
[36] = second compound 0.3 µM, first compound 1 µM
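Further: spheroids exposed to compound for seven days before readout.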
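Wherever pIC50 is given: luminescence signal used as a proxy for viable cells.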

With `Nc1ccn(C2OC(CO)C(O)C2(F)F)c(=O)n1` (stereo unspecified) + CCn1c(-c2cc(N3CCN(C)CC3)cnc2C(C)OC)c2c3cc(ccc31)-c1csc(n1)CC(NC(=O)C1CC1C)C(=O)N1CCCC(N1)C(=O)OCC(C)(C)C2 the pIC50 (second compound 0.000949 µM) was over 8.50, the pIC50 (second compound 0.003 µM) was over 8.50 and the pIC50 (second compound 0.00949 µM) was over 8.50. It also gave a pIC50 (second compound 0.03 µM) of over 8.50, a pIC50 (second compound 0.0949 µM) of over 8.50 and a pIC50 (second compound 0.3 µM) of over 8.50. For the same molecule, the viability, T/C [1] was 23.8%, the viability, T/C [2] was 22.4% and the viability, T/C [3] was 22.1%. For the same molecule, the viability, T/C [4] was 22.6%, the viability, T/C [5] was 20.7% and the viability, T/C [6] was 22%. For the same molecule, the viability, T/C [7] was 11%, the viability, T/C [8] was 10.7% and the viability, T/C [9] was 10.6%. For the same molecule, the viability, T/C [10] was 8.86%, the viability, T/C [11] was 11.5% and the viability, T/C [12] was 12.4%. The viability, T/C [13] was 6.32%, the viability, T/C [14] was 6.32% and the viability, T/C [15] was 6.59%. The viability, T/C [16] was 6.78%, the viability, T/C [17] was 6.01% and the viability, T/C [18] was 7.27%. The viability, T/C [19] was 6.63%, the viability, T/C [20] was 4.5% and the viability, T/C [21] was 4.58%. The viability, T/C [22] was 4.82%, the viability, T/C [23] was 5.13% and the viability, T/C [24] was 5.29%. For the same molecule, the viability, T/C [25] was 3.22%, the viability, T/C [26] was 3.54% and the viability, T/C [27] was 3.82%. It also gave a viability, T/C [28] of 3.99%, a viability, T/C [29] of 4.28% and a viability, T/C [30] of 5.17%. The viability, T/C [31] was 2.59%, the viability, T/C [32] was 2.74% and the viability, T/C [33] was 3.25%. For the same molecule, the viability, T/C [34] was 3.47%, the viability, T/C [35] was 4.08% and the viability, T/C [36] was 3.48%.

For `Cc1nc(N2CCC3(CC2)COC(C)C3N)c(CO)nc1Sc1ccnc(N)c1Cl` (stereo unspecified) + C#Cc1c(F)ccc2cc(O)cc(-c3ncc4c(N5CC6CCC(C5)N6)nc(OCC56CCCN5CC(F)C6)nc4c3F)c12, the pIC50 (second compound 0.0316 µM) was 7.18, the pIC50 (second compound 0.1 µM) was over 7.50 and the pIC50 (second compound 0.316 µM) was over 7.50. The pIC50 (second compound 1 µM) was over 7.50, the pIC50 (second compound 3.16 µM) was over 7.50 and the pIC50 (second compound 10 µM) was over 7.50. For the same molecule, the viability, T/C (second compound 0.0316 µM, first compound 0.0316 µM) was 63.3%, the viability, T/C (second compound 0.0316 µM, first compound 0.1 µM) was 43.5% and the viability, T/C (second compound 0.0316 µM, first compound 0.316 µM) was 26.2%. It also gave a viability, T/C (second compound 0.0316 µM, first compound 1 µM) of 19.9%, a viability, T/C (second compound 0.0316 µM, first compound 3.16 µM) of 15.2% and a viability, T/C (second compound 0.0316 µM, first compound 10 µM) of 13.1%. It also gave a viability, T/C (second compound 0.1 µM, first compound 0.0316 µM) of 46.1%, a viability, T/C (second compound 0.1 µM, first compound 0.1 µM) of 31.3% and a viability, T/C (second compound 0.1 µM, first compound 0.316 µM) of 21.6%. It also gave a viability, T/C (second compound 0.1 µM, first compound 1 µM) of 15.5%, a viability, T/C (second compound 0.1 µM, first compound 3.16 µM) of 12.7% and a viability, T/C (second compound 0.1 µM, first compound 10 µM) of 9.84%. It also gave a viability, T/C (second compound 0.316 µM, first compound 0.0316 µM) of 35.3%, a viability, T/C (second compound 0.316 µM, first compound 0.1 µM) of 20.9% and a viability, T/C (second compound 0.316 µM, first compound 0.316 µM) of 18.1%. The viability, T/C (second compound 0.316 µM, first compound 1 µM) was 10.4%, the viability, T/C (second compound 0.316 µM, first compound 3.16 µM) was 8.05% and the viability, T/C (second compound 0.316 µM, first compound 10 µM) was 7.7%. The viability, T/C (second compound 1 µM, first compound 0.0316 µM) was 21%, the viability, T/C (second compound 1 µM, first compound 0.1 µM) was 16.2% and the viability, T/C (second compound 1 µM, first compound 0.316 µM) was 10.6%. It also gave a viability, T/C (second compound 1 µM, first compound 1 µM) of 10.3%, a viability, T/C (second compound 1 µM, first compound 3.16 µM) of 4.69% and a viability, T/C (second compound 1 µM, first compound 10 µM) of 3.85%. For the same molecule, the viability, T/C (second compound 3.16 µM, first compound 0.0316 µM) was 12.1%, the viability, T/C (second compound 3.16 µM, first compound 0.1 µM) was 8.68% and the viability, T/C (second compound 3.16 µM, first compound 0.316 µM) was 5.69%. It also gave a viability, T/C (second compound 3.16 µM, first compound 1 µM) of 4.95%, a viability, T/C (second compound 3.16 µM, first compound 3.16 µM) of 3.57% and a viability, T/C (second compound 3.16 µM, first compound 10 µM) of 2.94%. It also gave a viability, T/C (second compound 10 µM, first compound 0.0316 µM) of 7.2%, a viability, T/C (second compound 10 µM, first compound 0.1 µM) of 6.13% and a viability, T/C (second compound 10 µM, first compound 0.316 µM) of 3.88%. For the same molecule, the viability, T/C (second compound 10 µM, first compound 1 µM) was 2.23%, the viability, T/C (second compound 10 µM, first compound 3.16 µM) was 2.98% and the viability, T/C (second compound 10 µM, first compound 10 µM) was 1.91%.

In the case of `C=CC(=O)N1CCN(c2nc(OCC3CCCN3C)nc3c(F)c(-c4nc(N)cc(C)c4C(F)(F)F)c(Cl)cc23)C(C)C1` (stereo unspecified) + CCn1c(-c2cccnc2C(C)OC)c2c3cc(ccc31)N1CCOC(CC(NC(=O)C(C(C)C)N(C)C(=O)C3(F)CCN(C(=O)C#CC(C)(C)N(C)C)CC3)C(=O)N3CCCC(N3)C(=O)OCC(C)(C)C2)C1, the pIC50 (second compound 0.000949 µM) was over 8.50, the pIC50 (second compound 0.003 µM) was over 8.50 and the pIC50 (second compound 0.00949 µM) was over 8.50. For the same molecule, the pIC50 (second compound 0.03 µM) was over 8.50, the pIC50 (second compound 0.0949 µM) was over 8.50 and the pIC50 (second compound 0.3 µM) was over 8.50. For the same molecule, the viability, T/C [1] was 13.9%, the viability, T/C [2] was 13.6% and the viability, T/C [3] was 13.3%. The viability, T/C [4] was 14.4%, the viability, T/C [5] was 15.2% and the viability, T/C [6] was 15.5%. For the same molecule, the viability, T/C [7] was 12.5%, the viability, T/C [8] was 14.6% and the viability, T/C [9] was 13.8%. It also gave a viability, T/C [10] of 13.8%, a viability, T/C [11] of 19.5% and a viability, T/C [12] of 15.4%. It also gave a viability, T/C [13] of 15.2%, a viability, T/C [14] of 14.1% and a viability, T/C [15] of 12.8%. It also gave a viability, T/C [16] of 14.5%, a viability, T/C [17] of 14.1% and a viability, T/C [18] of 14.4%. For the same molecule, the viability, T/C [19] was 13.6%, the viability, T/C [20] was 13.9% and the viability, T/C [21] was 14.8%. It also gave a viability, T/C [22] of 13.3%, a viability, T/C [23] of 13.4% and a viability, T/C [24] of 15.1%. It also gave a viability, T/C [25] of 12.6%, a viability, T/C [26] of 12.8% and a viability, T/C [27] of 11.9%. The viability, T/C [28] was 12.3%, the viability, T/C [29] was 12.9% and the viability, T/C [30] was 12.4%. For the same molecule, the viability, T/C [31] was 9.04%, the viability, T/C [32] was 8.65% and the viability, T/C [33] was 10.4%. The viability, T/C [34] was 13.6%, the viability, T/C [35] was 12.6% and the viability, T/C [36] was 11.6%.
